Measured values taken from US20070142392A1, “Uses of rifamycins” (ActivBiotics, Inc., priority 2005, published 2007).
≈ marks a conversion by molar mass, not a printed value.

Legend:
Format in all cases: cell-based
S. pneumo. = assay: MIC values, S. pneumo. (Tables 1-4)
E. faecalis = assay: MIC values, E. faecalis (Tables 1-4)
S. aureus = assay: MIC values, S. aureus (Tables 1-4)
E. coli = assay: MIC values, E. coli (Tables 1-4)
H. flu = test system: H. flu

Compound	MIC S. pneumo. (S. pneumo.)	MIC E. faecalis (E. faecalis)	MIC S. aureus (S. aureus)	MIC E. coli (E. coli)	MIC H. flu (H. flu)
CO[C@H]1/C=C/O[C@@]2(C)Oc3c(C)c(O)c4c(=O)c(c5oc6cc(N7CCC(NS(C)(=O)=O)CC7)cc(O)c6nc-5c4c3C2=O)NC(=O)/C(C)=C\C=C\[C@H](C)[C@H](O)[C@@H](C)[C@@H](O)[C@@H](C)[C@H](OC(C)=O)[C@@H]1C [Compound 25]	1 ng/mL (≈ 0.00102 µM)	2 µg/mL (≈ 2.05 µM)	0.008 µg/mL (≈ 0.00819 µM)	>8 µg/mL	2 µg/mL (≈ 2.05 µM)
CCCNC(=O)NC1CCN(c2cc(O)c3nc4c5c6c7c(C)c(O)c5c(=O)c(c-4oc3c2)NC(=O)/C(C)=C\C=C\[C@H](C)[C@H](O)[C@@H](C)[C@@H](O)[C@@H](C)[C@H](O)[C@H](C)[C@@H](OC)/C=C/O[C@@](C)(O7)C6=O)CC1 [Compound 26]	0.12 ng/mL (≈ 0.000127 µM)	2 µg/mL (≈ 2.12 µM)	0.008 µg/mL (≈ 0.00849 µM)	>8 µg/mL	1 µg/mL (≈ 1.06 µM)
CO[C@H]1/C=C/O[C@@]2(C)Oc3c(C)c(O)c4c(=O)c(c5oc6cc(N7CCC(NS(C)(=O)=O)CC7)cc(O)c6nc-5c4c3C2=O)NC(=O)/C(C)=C\C=C\[C@H](C)[C@H](O)[C@@H](C)[C@@H](O)[C@@H](C)[C@H](O)[C@@H]1C [Compound 27]	1 ng/mL (≈ 0.00107 µM)	1 µg/mL (≈ 1.07 µM)	0.015 µg/mL (≈ 0.016 µM)	>8 µg/mL	0.12 µg/mL (≈ 0.128 µM)
CCCNC(=O)NC1CCN(c2cc(O)c3nc4c5c6c7c(C)c(O)c5c(=O)c(c-4oc3c2)NC(=O)/C(C)=C\C=C\[C@H](C)[C@H](O)[C@@H](C)[C@@H](O)[C@@H](C)[C@H](OC(C)=O)[C@H](C)[C@@H](OC)/C=C/O[C@@](C)(O7)C6=O)CC1 [Compound 28]	2 ng/mL (≈ 0.00203 µM)	1 µg/mL (≈ 1.02 µM)	0.03 µg/mL (≈ 0.0305 µM)	>8 µg/mL	0.25 µg/mL (≈ 0.254 µM)
CO[C@H]1/C=C/O[C@@]2(C)Oc3c(C)c(O)c4c(=O)c(c5oc6cc(N7CCC(NC(=O)OC(C)C)CC7)cc(O)c6nc-5c4c3C2=O)NC(=O)/C(C)=C\C=C\[C@H](C)[C@H](O)[C@@H](C)[C@@H](O)[C@@H](C)[C@H](O)[C@@H]1C [Compound 29]	0.12 ng/mL (≈ 0.000127 µM)	2 µg/mL (≈ 2.12 µM)	0.008 µg/mL (≈ 0.00848 µM)	>8 µg/mL	1 µg/mL (≈ 1.06 µM)
COC(=O)NC1CCN(c2cc(O)c3nc4c5c6c7c(C)c(O)c5c(=O)c(c-4oc3c2)NC(=O)/C(C)=C\C=C\[C@H](C)[C@H](O)[C@@H](C)[C@@H](O)[C@@H](C)[C@H](O)[C@H](C)[C@@H](OC)/C=C/O[C@@](C)(O7)C6=O)CC1 [Compound 30]	2 ng/mL (≈ 0.00219 µM)	1 µg/mL (≈ 1.09 µM)	0.015 µg/mL (≈ 0.0164 µM)	>8 µg/mL	0.5 µg/mL (≈ 0.546 µM)
CCOC(=O)NC1CCN(c2ccc3nc4c5c6c7c(C)c(O)c5c(=O)c(c-4n(C)c3c2)NC(=O)/C(C)=C\C=C\[C@H](C)[C@H](O)[C@@H](C)[C@@H](O)[C@@H](C)[C@H](O)[C@H](C)[C@@H](OC)/C=C/O[C@@](C)(O7)C6=O)CC1 [Compound 31]	0.5 ng/mL (≈ 0.00054 µM)	0.25 µg/mL (≈ 0.27 µM)	0.03 µg/mL (≈ 0.0324 µM)	8 µg/mL (≈ 8.64 µM)	0.25 µg/mL (≈ 0.27 µM)
COC(=O)NC1CCN(c2cc(O)c3nc4c5c6c7c(C)c(O)c5c(=O)c(c-4oc3c2)NC(=O)/C(C)=C\C=C\[C@H](C)[C@H](O)[C@@H](C)[C@@H](O)[C@@H](C)[C@H](OC(C)=O)[C@H](C)[C@@H](OC)/C=C/O[C@@](C)(O7)C6=O)CC1 [Compound 32]	4000 ng/mL (≈ 4.18 µM)	>8 µg/mL	2 µg/mL (≈ 2.09 µM)	>8 µg/mL	>8 µg/mL
CO[C@H]1/C=C/O[C@@]2(C)Oc3c(C)c(O)c4c(=O)c(c5oc6cc(N7CCC(N)CC7)cc(O)c6nc-5c4c3C2=O)NC(=O)/C(C)=C\C=C\[C@H](C)[C@H](O)[C@@H](C)[C@@H](O)[C@@H](C)[C@H](OC(C)=O)[C@@H]1C [Compound 33]	0.06 ng/mL (≈ 6.67e-05 µM)	1 µg/mL (≈ 1.11 µM)	0.008 µg/mL (≈ 0.0089 µM)	>8 µg/mL	1 µg/mL (≈ 1.11 µM)
CCNC(=O)NC1CCN(c2cc(O)c3nc4c5c6c7c(C)c(O)c5c(=O)c(c-4oc3c2)NC(=O)/C(C)=C\C=C\[C@H](C)[C@H](O)[C@@H](C)[C@@H](O)[C@@H](C)[C@H](OC(C)=O)[C@H](C)[C@@H](OC)/C=C/O[C@@](C)(O7)C6=O)CC1 [Compound 34]	1 ng/mL (≈ 0.00103 µM)	2 µg/mL (≈ 2.06 µM)	0.03 µg/mL (≈ 0.0309 µM)	8 µg/mL (≈ 8.25 µM)	0.5 µg/mL (≈ 0.515 µM)
CCCS(=O)(=O)NC1CCN(c2cc(O)c3nc4c5c6c7c(C)c(O)c5c(=O)c(c-4oc3c2)NC(=O)/C(C)=C\C=C\[C@H](C)[C@H](O)[C@@H](C)[C@@H](O)[C@@H](C)[C@H](OC(C)=O)[C@H](C)[C@@H](OC)/C=C/O[C@@](C)(O7)C6=O)CC1 [Compound 35]	0.25 ng/mL (≈ 0.000249 µM)	4 µg/mL (≈ 3.98 µM)	0.015 µg/mL (≈ 0.0149 µM)	8 µg/mL (≈ 7.96 µM)	0.5 µg/mL (≈ 0.497 µM)
